Data taken from patent US11242337B2, “Compounds useful for treating gastrointestinal tract disorders” (Ardelyx, Inc., priority 2017, dated 2022).

Key:
NHE3 = biological target: T1, NHE3 (Homo sapiens, UniProt P48764); assay: Cell-based assay of NHE-3 activity (pre-incubation inhibition), human; details: human Preincubation; for pIC50: 0-30 μM test compound
T1 construct: expressed in transfected cells
T1 sequence (P48764 26-834): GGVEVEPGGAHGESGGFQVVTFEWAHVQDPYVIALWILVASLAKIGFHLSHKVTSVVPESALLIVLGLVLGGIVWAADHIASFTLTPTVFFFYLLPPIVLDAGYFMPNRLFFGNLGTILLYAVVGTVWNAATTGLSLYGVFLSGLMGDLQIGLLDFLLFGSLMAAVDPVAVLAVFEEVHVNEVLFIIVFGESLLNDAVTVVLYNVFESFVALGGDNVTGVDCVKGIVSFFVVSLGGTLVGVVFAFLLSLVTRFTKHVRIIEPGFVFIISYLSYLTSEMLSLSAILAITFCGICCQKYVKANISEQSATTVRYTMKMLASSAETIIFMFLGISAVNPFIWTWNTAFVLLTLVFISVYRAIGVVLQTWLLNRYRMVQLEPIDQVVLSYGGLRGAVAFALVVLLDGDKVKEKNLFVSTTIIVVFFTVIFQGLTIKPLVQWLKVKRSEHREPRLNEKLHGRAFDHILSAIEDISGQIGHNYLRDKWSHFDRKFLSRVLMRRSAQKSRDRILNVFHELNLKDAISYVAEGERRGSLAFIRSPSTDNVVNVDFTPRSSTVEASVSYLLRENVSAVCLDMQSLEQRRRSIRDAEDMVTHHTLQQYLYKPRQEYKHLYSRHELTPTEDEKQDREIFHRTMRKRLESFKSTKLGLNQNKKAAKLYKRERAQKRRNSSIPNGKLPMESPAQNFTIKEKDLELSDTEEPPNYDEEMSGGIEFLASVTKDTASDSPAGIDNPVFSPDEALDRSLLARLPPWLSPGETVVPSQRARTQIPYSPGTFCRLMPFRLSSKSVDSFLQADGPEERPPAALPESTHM
T1 sequence (Q99653 2-195 partner limits assumed): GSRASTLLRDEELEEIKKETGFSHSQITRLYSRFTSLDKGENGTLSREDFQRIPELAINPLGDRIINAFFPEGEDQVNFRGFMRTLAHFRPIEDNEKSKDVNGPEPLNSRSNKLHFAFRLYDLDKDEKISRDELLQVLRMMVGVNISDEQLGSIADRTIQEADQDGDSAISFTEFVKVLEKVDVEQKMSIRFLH
Outline: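 Activity read as initial rate of BCECF fluorescence ratio change per minute (ex 439/505, em 538 nm) following NH4Cl prepulse acid loading. Compound (0–30 μM) present during 10 min Na+-free acidification at room temperature; cells were PS120 fibroblasts stably co-expressing human NHE3 and NHERF2.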

[1] = system: human duodenum monolayer culture; assay: Sustained inhibition of apical acid secretion in human organoid monolayer cell cultures (duodenum); format: cell-based; details: Homo sapiens
Description: Basal media (BM) consisted of advanced DMEM/F12 containing 10 mM HEPES Invitrogen, 15630-080), 1:100 Glutamax (Invitrogen, 35050-061), and 1:100 penicillin/streptomycin (Invitrogen, 15140-122). Supplemented basal media (SBM) contained 1:100 N2 (Invitrogen, 17502-048), 1:50 B27 (Invitrogen, 12587-010), 1 mM N-acetylcysteine (Sigma, A9165), and 10 nM [Leu15]-gastrin I (Sigma, G9145). Growth factors used included 50 ng per mL mouse EGF (Peprotech, 315-09), 100 ng per mL mouse noggin (Peprotech, 250-38), 500 ng per mL human R-spondin 1 (R&D, 4645-RS), 100 ng per mL mouse Wnt-3a (R&D, 1324-WN), 20 μM. Y-27632 (Tocris, 1254), 10 mM nicotinamide (Sigma, N0636), 500 nM A83-01 (Tocris, 2939), 10 μM SB202190 (Tocris, 1264). Transwells were 0.4 μm pore polyester membrane 24-well Transwell inserts (Corning). Cultures were incubated at 37° C. in 5% CO2.
Each human ileum monolayer culture well was washed twice with fresh SBM on the apical side on day 6 before compound dosing. All compound stocks were 10 mM dissolved in DMSO. Each compound stock was individually mixed with fresh SBM to reach final compound concentration 1 μM and dosed only on the apical side of the monolayer (total volume 200 μl). DMSO at the equivalent concentration was used as the vehicle control. Duplicate wells were dosed for each compound. On day 8, apical media pH was measured by pH electrode, to determine the ability of example compounds to produce sustained inhibition of NHE3 activity in a human monolayer culture system by preventing proton secretion into the apical compartment.
Human duodenum organoids were cultured in WENRNAS (Wnt, EGF, noggin, R-spondin1, Nicotinamide, A83-01, SB202190) and typically grown for 7-12 days before being used to plate monolayer cultures. On day 0, organoid cultures embedded in Matrigel were treated with TrypLE Express to break organoids into small pieces and/or single cells. The cells were resuspended to 0.5×10^6 cells/mL in SBM containing WENRAY (Wnt, EGF, noggin, R-spondin1, A83-01, Y-27632). Following this step, 200 μL of cell suspension was plated into the apical side of a 24-well Transwell (100,000 cells/well) and 600 μL of SBM with WENRAY was added to the basolateral side. Duodenum cells were differentiated with ENA (EGF, noggin, A83-01) on day 3. The color of apical compartment turns from pink or orange to yellow due to the increase in NHE3 expression after differentiation.

Row | % inhibition (NHE3) | pIC50 (NHE3) | Compound | inhibition at 1 µM [1] [%]
1 | C (>70%) | C (NHE3 pIC50 > 7) | Cc1cc(S(=O)(=O)NCCOCCOCCNC(=O)NCCCCNC(=O)NCCOCCOCCNS(=O)(=O)c2ccc(O[C@H]3c4cc(Cl)cc(C)c4C[C@@H]3N(C)C)c(C)c2)ccc1O[C@H]1c2cc(Cl)cc(C)c2C[C@@H]1N(C)C [Example 17, 3-[2-(2-[2-[(4-[[(1S,2S)-6-Chloro-2-(dimethylamino)-4-methyl-2,3-dihydro-1H-inden-1-yl]oxy]-3-methylbenzene)sulfonamido]ethoxy]ethoxy)ethyl]-1-[4-([[2-(2-[2-[(4-[[(1S,2S)-6-chloro-2-(dimethylamino)-4-methyl-2,3-dihydro-1H-inden-1-yl]oxy]-3-methylbenzene)sulfonamido]ethoxy]ethoxy)ethyl]carbamoyl]amino)butyl]urea] | 50 to 70
2 | C (>70%) | C (NHE3 pIC50 > 7) | CN(C)[C@H]1Cc2c(Cl)cc(Cl)cc2[C@@H]1Oc1ccc(S(=O)(=O)NCCOCCOCCNC(=O)NCCCCNC(=O)NCCOCCOCCNS(=O)(=O)c2ccc(O[C@H]3c4cc(Cl)cc(Cl)c4C[C@@H]3N(C)C)c(F)c2)cc1F [Example 23, 3-[2-(2-[2-[(4-[[(1S,2S)-4,6-Dichloro-2-(dimethylamino)-2,3-dihydro-1H-inden-1-yl]oxy]-3-fluorobenzene)sulfonamido]ethoxy]ethoxy)ethyl]-1-[4-([[2-(2-[2-[(4-[[(1S,2S)-4,6-dichloro-2-(dimethylamino)-2,3-dihydro-1H-inden-1-yl]oxy]-3-fluorobenzene)sulfonamido]ethoxy]ethoxy)ethyl]carbamoyl]amino)butyl]urea; bis(trifluoroacetic acid)] | 50 to 70
3 | C (>70%) |  | Cc1cc(Cl)cc2c1C[C@H](N(C)C)[C@H]2Oc1ccc(S(=O)(=O)NCCOCCOCCNC(=O)NCCCCNC(=O)NCCOCCOCCNS(=O)(=O)c2ccc(O[C@H]3c4cc(Cl)cc(C)c4C[C@@H]3N(C)C)c(F)c2)cc1F [Example 24, 3-[2-(2-[2-[(4-[[(1S,2S)-6-Chloro-2-(dimethylamino)-4-methyl-2,3-dihydro-1H-inden-1-yl]oxy]-3-fluorobenzene)sulfonamido]ethoxy]ethoxy)ethyl]-1-[4-([[2-(2-[2-[(4-[[(1S,2S)-6-chloro-2-(dimethylamino)-4-methyl-2,3-dihydro-1H-inden-1-yl]oxy]-3-fluorobenzene)sulfonamido]ethoxy]ethoxy)ethyl]carbamoyl]amino)butyl]urea] | 50 to 70
4 | C (>70%) |  | Cc1cc(S(=O)(=O)NCCOCCOCCNC(=O)NCCCCNC(=O)NCCOCCOCCNS(=O)(=O)c2ccc(O[C@H]3c4cc(Cl)cc(Cl)c4C[C@@H]3N3CCC[C@@H](N(C)C)C3)c(C)c2)ccc1O[C@H]1c2cc(Cl)cc(Cl)c2C[C@@H]1N1CCC[C@@H](N(C)C)C1 [Example 26, 3-[2-(2-[2-[(4-[[(1S,2S)-4,6-Dichloro-2-[(3R)-3-(dimethylamino)piperidin-1-yl]-2,3-dihydro-1H-inden-1-yl]oxy]-3-methylbenzene)sulfonamido]ethoxy]ethoxy)ethyl]-1-[4-([[2-(2-[2-[4-[[(1S,2S)-4,6-dichloro-2-[(3R)-3-(dimethylamino)piperidin-1-yl]-2,3-dihydro-1H-inden-1-yl]oxy]-3-methylbenzenesulfonamido]ethoxy]ethoxy)ethyl]carbamoyl]amino)butyl]urea; bis(trifluoroacetic acid)] | 50 to 70
5 | C (>70%) | C (NHE3 pIC50 > 7) | Cc1cc(Cl)cc2c1C[C@H](N1CCC[C@@H](N(C)C)C1)[C@H]2Oc1ccc(S(=O)(=O)NCCOCCOCCNC(=O)NCCCCNC(=O)NCCOCCOCCNS(=O)(=O)c2ccc(O[C@H]3c4cc(Cl)cc(C)c4C[C@@H]3N3CCC[C@@H](N(C)C)C3)cc2)cc1 [Example 28, 3-[2-(2-[2-[(4-[[(1S,2S)-6-Chloro-2-[(3R)-3-(dimethylamino)piperidin-1-yl]-4-methyl-2,3-dihydro-1H-inden-1-yl]oxy]benzene)sulfonamido]ethoxy]ethoxy)ethyl]-1-[4-([[2-(2-[2-[(4-[[(1S,2S)-6-chloro-2-[(3R)-3-(dimethylamino)piperidin-1-yl]-4-methyl-2,3-dihydro-1H-inden-1-yl]oxy]benzene)sulfonamido]ethoxy]ethoxy)ethyl]carbamoyl]amino)butyl]urea; bis(trifluoroacetic acid)] | 50 to 70
6 | C (>70%) | C (NHE3 pIC50 > 7) | Cc1cc(S(=O)(=O)NCCOCCOCCNC(=O)NCCCCNC(=O)NCCOCCOCCNS(=O)(=O)c2ccc(O[C@H]3c4cc(Cl)cc(C)c4C[C@@H]3N3CCC[C@@H](N(C)C)C3)c(C)c2)ccc1O[C@H]1c2cc(Cl)cc(C)c2C[C@@H]1N1CCC[C@@H](N(C)C)C1 [Example 29] | > 70
7 | C (>70%) |  | O=C(NCCCCNC(=O)NCCOCCOCCNS(=O)(=O)c1ccc(O[C@H]2c3cc(Cl)cc(Cl)c3C[C@@H]2N2CCNCC2)cc1)NCCOCCOCCNS(=O)(=O)c1ccc(O[C@H]2c3cc(Cl)cc(Cl)c3C[C@@H]2N2CCNCC2)cc1 [Example 31, 3-[2-(2-[2-[(4-[[(1S,2S)-4,6-Dichloro-2-(piperazin-1-yl)-2,3-dihydro-1H-inden-1-yl]oxy]benzene)sulfonamido]ethoxy]ethoxy)ethyl]-1-[4-([[2-(2-[2-[(4-[[(1S,2S)-4,6-dichloro-2-(piperazin-1-yl)-2,3-dihydro-1H-inden-1-yl]oxy]benzene)sulfonamido]ethoxy]ethoxy)ethyl]carbamoyl]amino)butyl]urea; bis(trifluoroacetic acid)] | > 70
8 | C (>70%) | C (NHE3 pIC50 > 7) | Cc1cc(S(=O)(=O)NCCOCCOCCNC(=O)NCCCCNC(=O)NCCOCCOCCNS(=O)(=O)c2ccc(O[C@H]3c4cc(Cl)cc(Cl)c4C[C@@H]3N3CCNCC3)c(C)c2)ccc1O[C@H]1c2cc(Cl)cc(Cl)c2C[C@@H]1N1CCNCC1 [Example 32, 3-[2-(2-[2-[(4-[[(1S,2S)-4,6-Dichloro-2-(piperazin-1-yl)-2,3-dihydro-1H-inden-1-yl]oxy]-3-methylbenzene)sulfonamido]ethoxy]ethoxy)ethyl]-1-[4-([[2-(2-[2-[(4-[[(1S,2S)-4,6-dichloro-2-(piperazin-1-yl)-2,3-dihydro-1H-inden-1-yl]oxy]-3-methylbenzene)sulfonamido]ethoxy]ethoxy)ethyl]carbamoyl]amino)butyl]urea; bis(trifluoroacetic acid)] | > 70
